Source: patent US20120028990A1, “3 ARYL OR HETEROARYL-SUBSTITUTED INDOLE DERIVATIVE” (MSD K.K, priority 2010, published 2012)
pIC50: −log10 of the molar value.

target: T1, human QRFP receptor (GPR103) (Homo sapiens, UniProt Q96P65); test: QRFP43-binding inhibitory test; conditions: inhibition of specific [125I]QRFP43 binding; membranes of CHO-K1 cells expressing GPR103; 25° C., 1 hour
T1 construct: expressed in transfected cells; host or cells: CHO-K1 NFAT beta-lactamase (Aurora); membrane sample
T1 sequence (Q96P65 1-431): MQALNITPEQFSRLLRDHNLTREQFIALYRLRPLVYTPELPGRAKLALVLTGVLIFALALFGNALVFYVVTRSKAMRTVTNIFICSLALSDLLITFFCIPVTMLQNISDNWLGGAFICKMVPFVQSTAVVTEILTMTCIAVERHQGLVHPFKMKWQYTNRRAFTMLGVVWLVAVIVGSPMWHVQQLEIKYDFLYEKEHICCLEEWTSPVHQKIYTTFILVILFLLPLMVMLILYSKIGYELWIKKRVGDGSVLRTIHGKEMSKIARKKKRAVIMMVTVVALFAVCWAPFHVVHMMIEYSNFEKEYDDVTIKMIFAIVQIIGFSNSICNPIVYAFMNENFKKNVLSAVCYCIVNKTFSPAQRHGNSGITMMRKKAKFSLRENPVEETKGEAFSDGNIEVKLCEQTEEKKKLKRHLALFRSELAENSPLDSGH
From the text: A cDNA sequence [Accession No. NM_198179] coding for a human QRFP receptor (GPR103) was cloned in an expression vector pEF1V5-HisB (by Invitrogen). The resulting expression vector was transfected in a host cell CHO-K1 NFAT (3-Lactamase (by Aurora), according to a cationic lipid process [see Proceedings of the National Academy of Sciences of the United States of America, Vol. 84, p. 7413, 1987], thereby producing a QRFP receptor (GPR103).
A membrane sample prepared from the cells having expressed a QRFP receptor (GPR103) was incubated in an assay buffer (50 mM Tris-HCl, 1 mM EDTA and 0.1% BSA, pH 7.4) along with a test compound and 20,000 cpm [^125I] QRFP43 (by Perkin Elmer) therein, at 25° C. for 1 hour, and then filtered through a glass filter GF/C. After washed with 50 mM Tris-HCl (containing 2 mM EDTA, 10 mM MgCl2 and 0.04% Tween-20) buffer (pH 7.4), the radioactivity on the glass filter was determined. The non-specific binding was determined in the presence of 1 μM peptide QRFP43, and the 50% inhibitory concentration (IC50) of the test compound to the specific [^125I] QRFP43 binding was computed [see Endocrinology, Vol. 131, p. 2090, 1992].

SMILES	pIC50
CN1CC[C@H]2C[C@H](NC(=O)c3[nH]c4ccc(Cl)cc4c3-c3ccoc3)CC[C@@H]2C1 (single isomer, unassigned) [Example 7, 5-chloro-3-(3-fury)-N-(2-methyldecahydroisoquinolin-6-yl)-1H-indole-2-carboxamide]	8.01
CN1CC[C@H]2C[C@H](NC(=O)c3cc4cc(Cl)ccc4n3C)CC[C@@H]2C1 (single isomer, unassigned) [Reference example 1, 5-chloro-1-methyl-N-(2-methyldecahydroisoquinolin-6-yl)-1H-indole-2-carboxamide]	7.65
CN1CCN(CCNC(=O)c2[nH]c3ccc(Cl)cc3c2-c2ccsc2)CC1 [Example 2, 5-chloro-N-[2-(4-methylpiperazin-1-yl)ethyl]-3-(3-thienyl)-1H-indole-2-carboxamide]	8.33
CN1CCC(CCNC(=O)c2[nH]c3ccc(Cl)cc3c2-c2ccoc2)CC1 [Example 6, 5-chloro-3-(3-fury)-N-[2-(1-methylpiperidin-4-yl)ethyl]-1H-indole-2-carboxamide]	8.20
CN1CCN(CCNC(=O)c2[nH]c3ccc(Cl)cc3c2-c2cccs2)CC1 [Example 3, 5-chloro-N-[2-(4-methylpiperazin-1-yl)ethyl]-3-(2-thienyl)-1H-indole-2-carboxamide]	8.33
CNC(CCCCNC(=O)c1[nH]c2ccccc2c1-c1ccoc1)c1ccccn1 (single isomer, unassigned) [Example 9, 3-(3-fury)-N-[5-(methylamino)-5-pyridin-2-ylpentyl]-1H-indole-2-carboxamide]	8.97
CN1CCN(CCNC(=O)c2[nH]c3ccc(Cl)cc3c2-c2cscn2)CC1 [Example 4, 5-chloro-N-[2-(4-methylpiperazin-1-yl)ethyl]-3-(1,3-thiazol-4-yl)-1H-indole-2-carboxamide]	7.85
CN1CCN(CCNC(=O)c2[nH]c3ccc(Cl)cc3c2-c2ccoc2)CC1 [Example 1, 5-chloro-3-(3-fury)-N-[2-(4-methylpiperazin-1-yl)ethyl]-1H-indole-2-carboxamide]	8.65
CN1CCN(CCNC(=O)c2[nH]c3ccc(Cl)cc3c2-c2ccccc2)CC1 [Example 5, 5-chloro-N-[2-(4-methylpiperazin-1-yl)ethyl]-3-phenyl-1H-indole-2-carboxamide]	7.94
O=C(NCCCCC(c1ccco1)N1CCCC1)c1[nH]c2ccc(Cl)cc2c1-c1ccoc1 (racemic) [Example 8, 5-chloro-3-(3-fury)-N-[5-(2-furyl)-5-pyrrolidin-1-ylpentyl]-1H-indole-2-carboxamide]	9.24
